Experimental data: patent US8741659B2, “Composition for measuring the binding affinity between nucleic acid and test substance, and use thereof” (Osaka University, priority 2007, dated 2014)

What was measured:
[1] = tested on: RNAs of FIG. 2 (SEQ ID NOs: 1 through 3), with or without bulge structure; assay: Evaluation of binding between xanthone fluorescent molecule and RNA (fluorescence before and after mixing RNA); details: 10 μM compound, 30 μM RNA (A, U, C, G bulge or no bulge), cacodylate buffer pH 7.0, NaCl 100 mM
Description: Next, binding between X2S and RNAs was evaluated. The RNAs used in the present example had the structure illustrated in FIG. 2. FIG. 2 is a diagram schematically illustrating the structure of the RNAs used in the present example. The RNAs used in the present example had sequences shown in SEQ ID NOs: 1 through 3.
The symbol N in FIG. 2 represents either a base out of A, U, C, and G, or no base. Thus, in a case where a particular RNA as in FIG. 2 has N representing a base out of A, U, C, and G, the RNA is an RNA formed by hybridization of an RNA having the base sequence shown in SEQ ID NO: 1 with a single strand RNA having the base sequence shown in SEQ ID NO: 2. On the other hand, in a case where a particular RNA as in FIG. 2 has N representing no base, the RNA is an RNA formed by hybridization of an RNA having the base sequence shown in SEQ ID NO: 1 with an RNA having the base sequence shown in SEQ ID NO: 3.
This also applies to other bases. The RNAs used in the present example were purchased from Hokkaido System Science Co., Ltd.
Firstly, X2S was mixed in a cacodylate buffer solution (sodium cacodylate: 10 mM, pH 7.0; NaCl: 100 mM) at 10 μM, so that an X2S solution was obtained. The X2S solution was irradiated with light having an absorption maximum of 371±3 nm, and a fluorescence intensity was then measured. The fluorescence intensity was measured with use of a device (product number: RF-5300PC) available from Shimadzu Corporation. For each type of the RNAs, the fluorescence intensity was measured after the RNA was mixed in the X2S solution at 30 μM.
FIGS. 3 and 4 compare the fluorescence intensities measured before and after the RNA was mixed. […] The horizontal axis represents the fluorescence wavelength, whereas the vertical axis represents the fluorescence intensity. FIG. 4 is an enlarged graph corresponding to the fluorescence intensity of 5 A.U. in FIG. 3 and its vicinity.
Binding between X1S and RNAs was evaluated by a method identical to the method described in Example 2, except that X1S was used instead of X2S. […]

RRE = assay: Displacement assay using Rev peptide after formation of complex with RRE; type: binding, HIV-1; details: compound and RRE each 2 μM, Rev protein 0-4.0 μM
Description: In this Example, a binding affinity between a test substance and RRE was evaluated, with use of the compounds, X2S, X2S(3), X2S(4), X2S(5), X2S(2-Me), and 3,6-X2S(2). As the test substance, Rev protein used in Example 5 was used.
Firstly, in the same manner as in Example 3, the above compounds and RREs were respectively dissolved in cacodylate buffer solutions (sodium cacodylate: 10 mM pH 7.0, NaCl: 100 mM) each at 2 μM, so that an X2S-RRE solution, an X2S(3)-RRE solution, an X2S(4)-RRE solution, an X2S(5)-RRE solution, an X2S(2-Me)-RRE solution, and a 3,6-X2S(2)-RRE solution were prepared.
To each of these solutions, Rev protein was added in stages at 0 μM, 0.4 μM, 0.8 μM, 1.2 μM, 1.6 μM, 2.0 μM, 2.4 μM, 2.8 μM, 3.2 μM, 3.6 μM, and 4.0 μM. Further, a fluorescence intensity was measured at each concentration. The fluorescence intensity was measured in the same manner as that described in Example 14.
Each of FIGS. 43 to 48 is a view illustrating a result of the measurement of a binding affinity between Rev protein and RRE. […] In each of FIGS. 43 to 48, the horizontal axis represents the fluorescence wavelength, whereas the vertical axis represents the fluorescence intensity. […] Further, along the direction of the arrow extending from the curved line at the bottom, the curved lines, showing the respective results, are arranged in order of increasing amount of the test substance which was added.
FIG. 49 is a view illustrating a relationship between an amount of Rev added and a fluorescence intensity, in connection with X2S, X2S(3), X2S(4), X2S(5), X2S(2-Me), and 3,6-X2S(2). Further, FIG. 49 is also a view plotting, based on the results illustrated in FIGS. 43 to 48, the fluorescence intensities detected at the fluorescence wavelength at which the respective fluorescence peaks were observed. FIG. 50 is a graph illustrating a relationship between an amount of Rev added and a recovery rate of the fluorescence intensity. In FIG. 49, the vertical axis represents the fluorescence intensity. In FIG. 50, the vertical axis represents the recovery rate of the fluorescence intensity. In each of FIGS. 49 and 50, the horizontal axis represents the amount of Rev added. That is, each of FIGS. 49 and 50 reflects amounts of the above compounds liberated from RREs due to the addition of Rev.
The recovery rate of the fluorescence intensity was obtained by dividing (i) a maximum value of the fluorescence intensity detected at each Rev concentration ranging from 0 μM to 4.0 μM in each of FIGS. 43 to 48 by (ii) a maximum value of the fluorescence intensity of the curved line at the top in each of FIGS. 43 to 48.
In this Example, 1-Pyrenemethanamide, hydrochloride was used to measure a binding affinity between a test substance and RRE. As the test substance, Rev protein used in Example 5 was used.
Firstly, in the same manner as in Example 3, 1-Pyrenemethanamide, hydrochloride and RRE were dissolved in a cacodylate buffer solution (sodium cacodylate: 10 mM, pH 7.0; NaCl: 100 mM) each at 2 μM, so that a 1-Pyrenemethanamide, hydrochloride-RRE solution was prepared.
To the solution, Rev protein was added in steps at 0 μM, 0.4 μM, 0.8 μM, 1.2 μM, 1.6 μM, 2.0 μM, 2.4 μM, 2.8 μM, 3.2 μM, 3.6 μM, and 4.0 μM. Further, the solution at each concentration was irradiated with light having an excitation wavelength of 340 nm, and a fluorescence intensity was measured. A device used for measuring a fluorescence intensity and a variation in a slit width were the same as those in Example 13.
FIG. 55 is a view illustrating a result of the measurement of a binding affinity between Rev protein and RRE. The horizontal axis represents the fluorescence wavelength, whereas the vertical axis represents the fluorescence intensity. […] Further, along a bottom-to-top direction, the curved lines, showing the respective results, are arranged in order of increasing amount of the test substance which was added. […]

NCCOc1ccc2oc3ccc(OCCN)cc3c(=O)c2c1 [X2S, 2,7-bis(2-aminoethoxy)xanthen-9-one]
binding to RNAs [1]: capable of binding to RNAs having various structures
fluorescence intensity in displacement assay (RRE): high
recovery rate of the fluorescence intensity (RRE): good
